The subject of data set [1] is HepG2 hepatocarcinoma cells. The experiment in a line: Neutral red (NR) uptake cytotoxicity assay, HepG2. The data set is classed as cell-based, human. To be noted: for IC50: Homo sapiens, HepG2, NR assay, 72 h incubation; for selectivity index, HepG2: IC50 in CRL2120 normal fibroblasts divided by IC50 in HepG2. The text has this: (§1) DMSO at 0.1% was used as solvent control.

Data set [2] has as its system DLD-1 colorectal adenocarcinoma cells. Nature of the data set: Neutral red (NR) uptake cytotoxicity assay, DLD-1. To be noted: for IC50: Homo sapiens, DLD-1, NR assay, 72 h incubation; for selectivity index, DLD-1: IC50 in CRL2120 normal fibroblasts divided by IC50 in DLD-1. The data set is classed as cell-based, human.
From the text: as §1

Data set [3] in a line: Neutral red (NR) uptake cytotoxicity assay, Caco-2. The following applies: human, Caco-2.
From the text: (§2) Four human carcinoma cell lines and one normal cell line were used. They were: DLD-1 and Caco-2 colorectal adenocarcinoma cell lines, HepG2 hepatocarcinoma cells, MCF-7 breast adenocarcinoma cells and the normal CRL2120 human skin fibroblasts. Caco-2 cells (from the ŞAP Institute of Ankara,Turkey andMCF-7 cells (from ATCC) provided by Prof. Dr. Tansu Koparal (Anadolu University, Eskisehir, Turkey),HepG2, DLD-1 and CRL2120 cells were obtained from American Type Culture Collection (ATCC); DMEM medium (Sigma-aldrich, Munich, Germany) was used to maintain cells as a monolayer and was supplemented with 10% fetal calf serum and 1% penicillin (100 U/mL)-streptomycin (100 μg/mL) in a humidified 5% CO2 atmosphere at 37 °C.
(§3) Dimethylsufoxide (DMSO) at less than 0.1% final concentration was used to dilute the tested samples. DMSO at 0.1% was used as solvent control. The incubation time was 72 h incubation in humidified 5% CO2 atmosphere at 37 °C, followed by NR coloration as previously described [23, 24]. ELx 808 Ultra Microplate Reader (Biotek) equipped with a 540 nm filter was used to measure the absorbance. Each experiment was performed at least three times, with three replicates each. The viability was evaluated based on a comparison with untreated cells. The IC50 values represented the sample’s concentrations required to inhibit 50% of cell proliferation and were calculated from a calibration curve by linear regression using Microsoft Excel [26] as follows: for each sample, the cell growth percentages at the different concentrations were used to draw the calibration curve with logarithmic regression obtained by 2 measuring points (one smaller and one larger than 50%) from where the IC50 value was deduced.
The subject of data set [4] is Caco-2 colorectal adenocarcinoma cells. The experiment in a line: Neutral red (NR) uptake cytotoxicity assay, Caco-2. The following applies: Homo sapiens, Caco-2, 72 h, read-out: IC50 values, Caco-2.
From the text: as §2, §3
The test system of data set [5] is normal CRL2120 human skin fibroblasts. The experiment in a line: Neutral red (NR) uptake cytotoxicity assay, normal fibroblasts. The data set is classed as cell-based. To be noted: Skin fibroblast, 72 h incubation.
From the text: as §1

The test system of data set [6] is MCF-7 breast adenocarcinoma cells. Nature of the data set: Neutral red (NR) uptake cytotoxicity assay, MCF7. It counts as cell-based, human. The following applies: for IC50: Homo sapiens, MCF7, NR assay, 72 h incubation; for selectivity index, MCF7: IC50 in CRL2120 normal fibroblasts divided by IC50 in MCF7.
From the text: as §1

Data set [7] deals with four tested cancer cell lines (MCF-7, DLD-1, Caco-2, HepG2). Nature of the data set: Neutral red (NR) uptake cytotoxicity assay, summary over the four tested cancer cell lines. It counts as cell-based. To be noted: Homo sapiens; all 4/4 tested cancer cell lines; read-out: IC50 values against the four tested cancer cell lines.
From the text: as §1

Turning to `CCC(/C=C/[C@@H](C)C1CCC2C3=CCC4C[C@@H](O)CCC4(C)C3CCC21C)C(C)C` (stereo partly drawn) [Compound 1, β-spinasterol], the IC50 in data set [1] was > 97.1 µM; in data set [2], > 97.1 µM; in data set [4], 69.8 ± 5.12 µM; in data set [5] it was > 97.1 µM; in data set [6], > 97.1 µM. Also, in data set [3], the selectivity ratio at 72 h was > 1.39.

For `C[C@H]1C(=O)CC[C@@H]2[C@]1(C)CC[C@H]1[C@@]2(C)CC[C@@]2(C)[C@@H]3CC(C)(C)CC[C@]3(C)CC[C@]12C` [Compound 2, friedelanone], the IC50 in data set [1] was > 93.9 µM; in data set [2] it was > 93.9 µM; in data set [4] it was > 93.9 µM; in data set [5] it was > 93.9 µM; in data set [6], 70.8 ± 4.95 µM. Besides, the “selectivity index, MCF7” value in data set [6] was > 1.33.

With `CC(=O)O[C@H]1CC[C@]2(C)[C@H]3CC=C4[C@@H]5CC(C)(C)CC[C@]5(C)CC[C@@]4(C)[C@]3(C)CC[C@H]2C1(C)C` [Compound 4, β-amyrin acetate], the IC50 in data set [1], in data set [2], in data set [4], in data set [5] and in data set [6] was > 85.5 µM throughout.

Consider `C=C(C)[C@@H]1CC[C@]2(C)CC[C@]3(C)[C@H](CC[C@@H]4[C@@]5(C)CC[C@H](OC(C)=O)C(C)(C)[C@@H]5CC[C@]43C)[C@@H]12` [Compound 5, lupeol acetate], for which the concentration for half-maximal inhibition (IC50) was > 85.5 µM in data set [1]; > 85.5 µM in data set [2]; > 85.5 µM in data set [4]; > 85.5 µM in data set [5]; 10.7 ± 0.75 µM in data set [6]. Also, the “selectivity index, MCF7” value in data set [6] is given as > 8.00.

For `CO[C@H]1[C@H](O)[C@@H](O)[C@@H](O)[C@@H](O)[C@@H]1O` [Compound 6, 5-O-methyl-myo-inositol or sequoyitol], the IC50 is 45.1 ± 3.42 µM in data set [1]; > 206 µM in data set [2]; > 206 µM in data set [4]; > 206 µM in data set [5]; 167 ± 12 µM in data set [6]. Moreover, in data set [1], the “selectivity index, HepG2” value is recorded as > 4.57. The “selectivity index, MCF7” value in data set [6] is recorded as > 1.24.

In the case of `COc1cc(O)c2c(=O)c(O[C@H]3OC(C)[C@@H](O)C(O)[C@H]3O)c(-c3ccc(O)c(O)c3)oc2c1` (stereo partly shown) [Compound 7, rhamnitrin or 7-O-methylquercetin 3-O-rhamnoside], the concentration for half-maximal inhibition (IC50) is > 86.6 µM in data set [1]; > 86.6 µM in data set [2]; > 86.6 µM in data set [4]; 52.3 µM in data set [5]; 60.9 ± 5.39 µM in data set [6]. The “selectivity index, MCF7” value in data set [6] amounted to 0.86.

With `COc1cc(O)c2c(=O)c(O[C@H]3OC(C)[C@@H](O)C(O)[C@H]3O)c(-c3cc(O)c(O)c(O)c3)oc2c1` (stereo partly shown) [Compound 8, europetin 3-O-rhamnoside or 7-O-methylmyricetin 3-O-rhamnoside], the IC50 in data set [1] is > 83.7 µM; in data set [2], > 83.7 µM; in data set [4], > 83.7 µM; in data set [5], > 83.7 µM; in data set [6] it was 16.7 ± 1.81 µM. The “selectivity index, MCF7” value in data set [6] is reported as > 5.00.

Take `CC1(C)C=Cc2c(O)ccc(C3COc4cc(O)cc(O)c4C3=O)c2O1` (stereo not shown) [Compound 10, glyasperin F]: the IC50 in data set [1] was 16.9 ± 1.2 µM; in data set [2], 20.9 ± 1.64 µM; in data set [7], < 85 µM; in data set [4] it was 17.6 ± 1.39 µM; in data set [5], > 113 µM; in data set [6], 11.1 ± 0.88 µM. Also, the “selectivity index, HepG2” value in data set [1] is recorded as > 6.69. Moreover, the “selectivity index, DLD-1” value in data set [2] is > 5.41. In data set [3], the selectivity ratio at 72 h was > 6.42. Also, the “selectivity index, MCF7” value in data set [6] was > 10.14.

Take `C=C(CO)C1Cc2cc3c(cc2O1)OCC1c2ccc(O)cc2OC31` (stereo not shown) [Compound 11, seputhecarpan B]: the concentration for half-maximal inhibition (IC50) in data set [1] is 61.9 ± 4.2 µM; in data set [2] it was 57.9 ± 3.89 µM; in data set [7], < 85 µM; in data set [4] it was 84.4 ± 6.32 µM; in data set [5], > 118 µM; in data set [6], 11.9 ± 0.94 µM. In addition, the “selectivity index, HepG2” value in data set [1] was > 1.91. Further, the “selectivity index, DLD-1” value in data set [2] was > 2.04. The selectivity ratio at 72 h in data set [3] is > 1.4. Also, in data set [6], the “selectivity index, MCF7” value is listed as > 9.93.

Take `C=C(CO)C1Cc2cc3c(cc2O1)OCC1c2ccc(OC)cc2OC31` (stereo not shown) [Compound 12, seputhecarpan C]: the concentration for half-maximal inhibition (IC50) was 76.7 ± 7.24 µM in data set [1]; 37.8 ± 1.76 µM in data set [2]; < 85 µM in data set [7]; 67.3 ± 3.98 µM in data set [4]; > 114 µM in data set [5]; 13.3 ± 0.67 µM in data set [6]. In data set [1], the “selectivity index, HepG2” value was > 1.48. The “selectivity index, DLD-1” value in data set [2] is recorded as > 3.00. Further, the selectivity ratio at 72 h in data set [3] is > 1.69. Also, in data set [6], the “selectivity index, MCF7” value was > 8.55.

Take `CC1(C)C=Cc2c(cc(O)c3c(=O)c4cc5c(c(O)c4oc23)OC(C)(C)C=C5)O1` [Compound 14, rheediaxanthone A]: the concentration for half-maximal inhibition (IC50) in data set [1] is 14.6 ± 0.93 µM; in data set [2], > 102 µM; in data set [4], 3.15 ± 0.01 µM; in data set [5], 80.3 ± 5.42 µM; in data set [6], > 102 µM. Besides, the “selectivity index, HepG2” value in data set [1] was determined as 5.50. Moreover, the selectivity ratio at 72 h in data set [3] is 35.5.

For the origin of these results see PMC5789597, “Cytotoxicity of seputhecarpan D, thonningiol and 12 other phytochemicals from African flora towards human carcinoma cells” (BMC Complementary and Alternative Medicine, 2018).
